“And” between values parts separate entries of the source, which are not always exact repeats. Equal values may be shown once.
Columns and labels:
[1] = instrument: DT, stepped-field
[2] = instrument: DT, single field, calibrated with Agilent tune mix (Agilent)

Cn1cnc2ncnc-2c1N [1-Methyladenine]
collision cross section (N2) ([1]; [M+H]+): 128.35 Å²

Cn1c(N)nc2c(ncn2[C@@H]2O[C@H](CO)[C@@H](O)[C@H]2O)c1=O [1-Methylguanosine]
collision cross section (N2) ([1]; [M+H]+): 168.8 Å² | collision cross section (N2) ([1]; [M+Na]+): 180.8 Å²

Cc1cccc2ccccc12 [1-methylnaphthalene]
collision cross section (N2) ([1]; [M+H]+): 125.2 Å²

O=C(O)CNC(=O)c1ccccc1O [2-Hydroxy Hippuric Acid]
collision cross section (N2) ([1]; [M+Na]+): 154.87 Å²

COc1cc2c(cc1O)CC[C@@H]1[C@@H]2CC[C@]2(C)C(=O)CC[C@@H]12 [2-Methoxyestrone]
collision cross section (N2) ([1]; [M+H]+): 174.47 Å² | collision cross section (N2) ([1]; [M+Na]+): 201.71 Å²

CCCC(=O)C(=O)O [2-Oxovaleric Acid]
collision cross section (N2) ([1]; [M+Na]+): 131.64 Å²

O=C(O)C1=CC(=O)[C@@H](O)[C@H](O)C1 [3-Dehydroshikimic Acid]
collision cross section (N2) ([1]; [M+H]+): 132.73 Å²

CC(C)=CCC[C@@H](C)[C@H]1CC[C@@]2(C)C3=C(CC[C@]12C)[C@@]1(C)CC[C@H](O)C(C)(C)[C@@H]1CC3 [Lanosterol]
collision cross section (N2) ([2]; [M+H-H2O]+): 207.3 Å²

C[C@H](CCC(=O)O)[C@H]1CC[C@H]2[C@@H]3CC[C@@H]4C[C@H](O)CC[C@]4(C)[C@H]3CC[C@]12C [Lithocholic acid]
collision cross section (N2) ([2]; [M+H-H2O]+): 193.4 Å² | collision cross section (N2) ([2]; [M-H]-): 199.95 Å²

O=P(O)(O)OC1C(OP(=O)(O)O)C(OP(=O)(O)O)C(OP(=O)(O)O)C(OP(=O)(O)O)C1OP(=O)(O)O (stereo not given) [Myo-inositol hexakisphosphate]
collision cross section (N2) ([2]; [M-H]-): 193.29 Å²

CCCCCCCCCCCCCC(=O)O [Myristic acid]
collision cross section (N2) ([2]; [M-H]-): 159.21 Å²

CC(=O)N[C@@H](CCCN)C(=O)O [N2-Acetyl-L-ornithine]
collision cross section (N2) ([2]; [M+H]+): 136.9 Å²

CNc1ncnc2c1ncn2[C@@H]1O[C@H](CO)[C@@H](O)[C@H]1O [N6-methyladenosine]
collision cross section (N2) ([2]; [M+Na]+): 170.4 Å² | collision cross section (N2) ([2]; [M-H]-): 159.67 Å²

CC(=O)NCCCCNCCCN [N8-Acetylspermidine]
collision cross section (N2) ([2]; [M+H]+): 142.7 Å² | collision cross section (N2) ([2]; [M-H]-): 146.34 Å²

CC(=O)N[C@H]1[C@H](O[C@H]2[C@H](O)[C@@H](NC(C)=O)C(O)O[C@@H]2CO)O[C@H](CO)[C@@H](O)[C@@H]1O (stereo not given in full) [N,N'-Diacetylchitobiose]
collision cross section (N2) ([2]; [M+H]+): 192.9 Å²

NC(=NCCCC(N)C(=O)O)NO (stereo not given) [N-(omega)-Hydroxyarginine]
collision cross section (N2) ([2]; [M+H]+): 139 Å² | collision cross section (N2) ([2]; [M-H]-): 138.2 Å²

CC(=O)N[C@@H](CC(=O)O)C(=O)O [N-Acetyl-L-aspartic acid]
collision cross section (N2) ([2]; [M+Na]+): 139 Å² | collision cross section (N2) ([2]; [M-H]-): 129.21 Å²

CC(=O)N[C@@H](Cc1ccccc1)C(=O)O [N-Acetyl-L-phenylalanine]
collision cross section (N2) ([2]; [M+Na]+): 149.8 Å² | collision cross section (N2) ([2]; [M-H]-): 144.2 Å²

CC(=O)N[C@@H](CC(=O)O)C(=O)N[C@@H](CCC(=O)O)C(=O)O [N-Acetylaspartylglutamate (NAAG)]
collision cross section (N2) ([2]; [M+Na]+): 166.3 Å²

CC(=O)N[C@@H](CC(=O)O)C(=O)N[C@@H](CCC(=O)O)C(=O)O [N-Acetylaspartylglutamate]
collision cross section (N2) ([2]; [M-H2O-H]-): 156.77 Å²

CC(=O)N[C@@H](CCC(N)=O)C(=O)O [N-Acetylglutamine]
collision cross section (N2) ([2]; [M+Na]+): 144.4 Å² | collision cross section (N2) ([2]; [M-H]-): 136.82 Å²

CSCC[C@H](NC=O)C(=O)O [N-Formylmethionine]
collision cross section (N2) ([2]; [M-H]-): 134.09 Å²

NC(=O)c1ccc[n+]([C@@H]2O[C@H](COP(=O)(O)OP(=O)(O)OC[C@H]3O[C@@H](n4cnc5c(N)ncnc54)[C@H](OP(=O)(O)O)[C@@H]3O)[C@@H](O)[C@H]2O)c1 [Nicotinamide adenine dinucleotide phosphate (NADP)]
collision cross section (N2) ([2]; [M+H]+): 230.9 Å²

NC(=O)c1ccc[n+]([C@@H]2O[C@H](COP(=O)(O)OP(=O)(O)OC[C@H]3O[C@@H](n4cnc5c(N)ncnc54)[C@H](OP(=O)(O)O)[C@@H]3O)[C@@H](O)[C@H]2O)c1 [Nicotinamide adenine dinucleotide phosphate]
collision cross section (N2) ([2]; [M-H]-): 228.27 Å²

NC(=O)c1ccc[n+]([C@@H]2O[C@H](COP(=O)([O-])O)[C@@H](O)[C@H]2O)c1 [Nicotinamide ribotide]
collision cross section (N2) ([2]; [M+H]+): 165.2 Å²

NC[C@H](O)c1ccc(O)c(O)c1 [Norepinephrine]
collision cross section (N2) ([2]; [M+H-H2O]+): 137.3 Å² and 136.8 Å² | collision cross section (N2) ([2]; [M-H]-): 131.99 Å²

NCCOP(=O)(O)O [O-Phosphoethanolamine]
collision cross section (N2) ([2]; [M-H]-): 121.6 Å²

N[C@@H](Cc1ccc(OP(=O)(O)O)cc1)C(=O)O [O-Phosphotyrosine]
collision cross section (N2) ([2]; [M+H]+): 162.2 Å² | collision cross section (N2) ([2]; [M+Na-2H]-): 149.33 Å²

CCCCCCCC(=O)SCCNC(=O)CCNC(=O)[C@H](O)C(C)(C)COP(=O)(O)OP(=O)(O)OC[C@H]1O[C@@H](n2cnc3c(N)ncnc32)[C@H](O)[C@@H]1OP(=O)(O)O [Octanoyl-CoA]
collision cross section (N2) ([2]; [M-H]-): 268.72 Å²
